Data reported in PMC2364081, “Antagonists of retinoic acid receptors (RARs) are potent growth inhibitors of prostate carcinoma cells” (British Journal of Cancer, 2001).
Read-outs that look alike come from different tables or passages of the source.

Columns and labels:
LNCaP cells = details: cited from earlier work
[1] = test system: LNCaP, PC3 and DU145 cells; test: Plate colony formation assay, stated over the three serum-free grown lines; assay type: cell-based, human; details: 100 nM, three cell lines, ITS+ and FBS cells
Description: (§1) Prostate cancer is one of the most common cancers in European and American males and has a high mortality rate (Landis et al, 1998; Rosenthal, 1998). Early disease is managed conservatively in Europe although in selected patients surgery is curative. In advanced disease, androgen ablation can produce symptomatic improvement, but the tumour often re-emerges in an androgen- independent and incurable form. One proposed treatment for androgen-independent prostate carcinoma is differentiation ther- apy, in which agents such as all-trans-retinoic acid (ATRA), 9-cis- retinoic acid and 1, 25-dihydroxyvitamin D3 (D3 ) are used to induce growth arrest, differentiation and sometimes apoptosis of the tumour cells (Liang et al, 1999; de Vos et al, 1997; Skowronski et al, 1994; Hedlund et al, 1997). ATRA and synthetic analogues exert their biological effects by binding to two families of retinoid receptors, […]. These are ligand-dependent transcription factors of the steroid/thyroid hormone nuclear receptor superfamily (Chambon 1994; Boehm et al, 1995). Activated RARs bind to retinoic acid-responsive elements (RAREs) in the promoters of genes and thus regulate gene expression. They also antagonize the activity of the tran- scription factor AP1 and thereby down-regulate the expression of some AP1-activated genes (Nagpal et al, 1995). One approach to unravelling the contributions of RAR sub-types to these actions has been the development of synthetic retinoids with selective activities at individual RARs and RXRs. For example, the diaryl- acetylenic retinoids allow separation of transactivation and AP1 antagonism functions at RAR (Nagpal et al, 1995). Recently, compounds that are selective for particular RAR sub-types have been synthesized: these include both agonists and antagonists (Chandraratna, 1995; Teng et al, 1999; Johnson et al, 1999). The functional selectivity of these compounds may open the way to achieving differentiation or apoptosis of tumour cells with minimal systemic side effects (Chandraratna, 1995). Cell lines that are commonly used in the evaluation of investiga- tional agents for prostate cancer include LNCaP, DU-145 and PC- 3. […] These lines are relatively insensitive to growth inhibition and induction of apoptosis by ATRA and by synthetic agonists. […] Fenretinide (4HPR) induces apoptosis of LNCaP and of PC-3 cells at 1-5 M and 25 µM, respectively (Pienta et al, 1993; Heish and Wu, 1997). Pfahl and colleagues examined the growth inhibitory effects of a panel of receptor-selective retinoids against DU145 and PC-3 cells and achieved complete growth inhibition and induction of apoptosis between 1 M and 10 M (Lu et al, 1999). […] Antagonists of retinoic acid receptors (RARs) are potent growth inhibitors of prostate carcinoma cells LA Hammond1 , CH Van Krinks2 , J Durham2 , SE Tomkins2 , RD Burnett3 , EL Jones1 , RAS Chandraratna3 and G Brown2 Divisions of 1 Cancer Studies and of 2 Immunity and Infection, University of Birmingham Medical School, Edgbaston, Birmingham B15 2TT, UK and 3 Retinoid Research, Allergan Inc., Irvine, California, USA Summary Novel synthetic antagonists of retinoic acid receptors (RARs) have been developed. To avoid interference by serum retinoids when testing these compounds, we established serum-free grown sub-lines (>3 years) of the prostate carcinoma lines LNCaP, PC3 and DU145. […] A component(s) of serum and of LNCaP-conditioned medium diminishes the activity of antagonists: this factor is not the most likely candidates IGF-1 and EGF. In vitro studies of RAR antagonists together with data from RAR-null mice lead to the hypothesis that RAR-regulated gene transcription is necessary for the survival and maintenance of prostate epithelium. […]

PC-3 and DU-145 cells = test system: PC-3 and DU-145 cells; parameters: method as in Lu et al, 1997 and 1999; dose or concentration left out as unconfirmed; details: ref Lu et al, 1997 and 1999; cited from earlier work
FBS-grown DU145 cells = test: Plate colony formation assay, FBS-grown DU145; assay type: cell-based, human; parameters: dose or concentration left out as unconfirmed; details: ATRA
Description: Prostate cancer is one of the most common cancers in European and American males and has a high mortality rate (Landis et al, 1998; Rosenthal, 1998). Early disease is managed conservatively in Europe although in selected patients surgery is curative. In advanced disease, androgen ablation can produce symptomatic improvement, but the tumour often re-emerges in an androgen- independent and incurable form. One proposed treatment for androgen-independent prostate carcinoma is differentiation ther- apy, in which agents such as all-trans-retinoic acid (ATRA), 9-cis- retinoic acid and 1, 25-dihydroxyvitamin D3 (D3 ) are used to induce growth arrest, differentiation and sometimes apoptosis of the tumour cells (Liang et al, 1999; de Vos et al, 1997; Skowronski et al, 1994; Hedlund et al, 1997). ATRA and synthetic analogues exert their biological effects by binding to two families of retinoid receptors, […]. These are ligand-dependent transcription factors of the steroid/thyroid hormone nuclear receptor superfamily (Chambon 1994; Boehm et al, 1995). Activated RARs bind to retinoic acid-responsive elements (RAREs) in the promoters of genes and thus regulate gene expression. They also antagonize the activity of the tran- scription factor AP1 and thereby down-regulate the expression of some AP1-activated genes (Nagpal et al, 1995). […]

PC-3 cells = test system: PC-3 cells; parameters: method as in Pienta et al, 1993; Heish and Wu, 1997; details: ref Pienta et al, 1993; Heish and Wu, 1997; cited from earlier work
breast carcinoma lines = test system: breast carcinoma lines; parameters: method as in Fanjul et al, 1998; details: low serum (0.5%); ref Fanjul et al, 1998; cited from earlier work
LNCaP ITS+ cells = test: Plate colony formation (clonal proliferation) assay, serum-free (ITS+)-grown LNCaP; assay type: cell-based, human
Description: as §1

Molecule: CC1=C(/C=C/C(C)=C/C=C/C(C)=C/C(=O)O)C(C)(C)CCC1 [ATRA, all-trans retinoic acid]
- concentration inducing apoptosis (LNCaP cells; ref Gao et al, 1999): 2 µM
- effect on colony formation [1]: little effect
- growth inhibition and apoptosis (PC-3 and DU-145 cells): neither inhibits the growth nor induces apoptosis
- reduction in colony formation (FBS-grown DU145 cells): < 1%

Molecule: CC1=C(/C=C/C(C)=C/C=C/C(C)=C/C(=O)Nc2ccc(O)cc2)C(C)(C)CCC1 [Fenretinide]
- concentration inducing apoptosis (PC-3 cells): 25 µM
- concentration inducing apoptosis (LNCaP cells; ref Pienta et al, 1993, Heish and Wu, 1997): 1 to 5 µM

Molecule: COCCOCOc1ccc(C(=O)/C=C/c2ccc(C(=O)O)cc2)cc1C12CC3CC(CC(C3)C1)C2 [MX781]
- concentration abolishing cell proliferation (breast carcinoma lines): > 1 µM

Molecule: C/C(=C\c1ccc(C(=O)O)cc1)c1ccc2c(c1)C(C)(C)CCC2(C)C [TTNPB, reference compound]
- inhibition of colony formation (LNCaP ITS+ cells; TTNPB alone at 10 -6 M): > 90%
- inhibition of colony formation (LNCaP ITS+ cells; TTNPB alone at 10 -7 M): ~ 10%

Molecule: EGF: Epidermal growth factor (R & D, Abingdon, UK) (NSDSECPLSHDGYCLHDGVCMYIEALDKYACNCVVGYIGERCQYRDLKWWELR; UniProt P01133 971-1023, looked up)
- reversal of the inhibition of colony formation by 100 nM AGN194310 (LNCaP ITS+ cells; EGF at 1, 10 and 20 ng/ml): did not reverse
